Literature values as cited in patent publication US20170341994A1, “PLANT GROWTH REGULATOR AND A METHOD OF USING THE SAME” (GLUCAN BIOLOGICAL TECHNOLOGY CO., LTD, priority 2016, published 2017).

Tested on: tumor
Conditions: some studies

Substance: β-glucan
- inhibition of tumor growth: more than 95%
